Format in all cases: biochemical
In assay [1] the target is NA (neuraminidase) of A/Yamagata/122/2023 (Influenza A virus, UniProt C3W5S3).
The target in assay [2] is NA (neuraminidase) of A/Yamagata/127/2023 (Influenza A virus, UniProt C3W5S3).
Assay [3] concerns the target NA (neuraminidase) of A/Yamagata/135/2023 (Influenza A virus, UniProt C3W5S3).
In assay [4] the target is NA (neuraminidase) of A/Yamagata/177/2023 (Influenza A virus, UniProt C3W5S3).
The target of assay [5] is NA (neuraminidase) of A/Yamagata/292/2023 (Influenza A virus, UniProt C3W5S3).
Assay [6] concerns the target NA (neuraminidase) of A/Yamagata/312/2023 (Influenza A virus, UniProt C3W5S3).
The target of assay [7] is NA (neuraminidase) of A/Yamagata/336/2023 (Influenza A virus, UniProt C3W5S3).
In assay [8] the target is NA (neuraminidase) of A/Yamagata/104/2024 (Influenza A virus, UniProt C3W5S3).

pIC50: −log10 of the molar value.

In the case of `CCC(CC)[C@H](NC(C)=O)[C@@H]1[C@H](O)[C@@H](C(=O)O)C[C@H]1N=C(N)N` [Peramivir, peramivir], the pIC50 (in general, the negative decadic logarithm of the IC50, by convention in mol/L) in assay [1] was 10.10; in assay [2] it was 10.10; in assay [3], 10.10; in assay [4], 10.22; in assay [5], 10.05; in assay [6], 9.96. Moreover, the pIC50 in assay [7] and in assay [8] was 10.05 in each case.

Values taken from PMC12044245 (Emerging Infectious Diseases, 2025).
